Laboratory results reported in PubChem BioAssay AID248 (DTP/NCI, 2004).
Values joined by “and” are separate entries in the source; they are usually repeats but may differ in a detail not shown here. Equal values may be shown once. Inconclusive results and toxic doses are left out. Cut-off read from the data, not from the text of the source: active = T/C of 150% or more; inactive = T/C below 125%.

System: L1210 leukemia ip in BDF1 mice, survival T/C
Assay: NCI In Vivo Anticancer Drug Screen. Data for tumor model L1210 Leukemia (intraperitoneal) in B6D2F1 (BDF1) mice
Settings: endpoint: mean survival time, higher = longer survival
How it was run: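 Tumor cells were implanted, animals were treated, and survival was followed. The result divides the treated measurement by the vehicle-control measurement.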

[1] = dose: 400.0 mg/kg/injection, schedule: Q04DX002 (ip), vehicle: saline with Tween-80
[2] = dose: 100.0 mg/kg/injection, schedule: Q01DX001 (ip), vehicle: saline
[3] = dose: 200.0 mg/kg/injection, schedule: Q01DX001 (ip), vehicle: saline
[4] = dose: 100.0 mg/kg/injection, schedule: Q04DX003 (ip), vehicle: Klucel (hydroxypropylcellulose) (HPC)
[5] = dose: 100.0 mg/kg/injection, schedule: Q01DX009 (ip), vehicle: saline with Tween-80
[6] = dose: 200.0 mg/kg/injection, schedule: Q04DX003 (ip), vehicle: Klucel (hydroxypropylcellulose) (HPC)
[7] = dose: 400.0 mg/kg/injection, schedule: Q04DX003 (ip), vehicle: Klucel (hydroxypropylcellulose) (HPC)
[8] = dose: 400.0 mg/kg/injection, schedule: Q01DX001 (ip), vehicle: saline
[9] = dose: 100.0 mg/kg/injection, schedule: Q01DX009 (ip), vehicle: Klucel (hydroxypropylcellulose) (HPC)
[10] = dose: 200.0 mg/kg/injection, schedule: Q01DX009 (ip), vehicle: Klucel (hydroxypropylcellulose) (HPC)
[11] = dose: 400.0 mg/kg/injection, schedule: Q01DX009 (ip), vehicle: Klucel (hydroxypropylcellulose) (HPC)

Measured: T/C

CN(C)/N=C\c1cccc2ccccc12
inactive: dose: 100.0 mg/kg/injection, schedule: Q04DX002 (ip), vehicle: saline with Tween-80 96 % of control | dose: 200.0 mg/kg/injection, schedule: Q04DX002 (ip), vehicle: saline with Tween-80 92 % of control | [1] 92 % of control

Nc1ncnc2nc(-c3cccc(OCCCOc4ccccc4)c3)[nH]c12
inactive: dose: 75.0 mg/kg/injection, schedule: Q01DX001 (ip), vehicle: gum acacia 95 % of control | dose: 150.0 mg/kg/injection, schedule: Q01DX001 (ip), vehicle: gum acacia 93 % of control | dose: 300.0 mg/kg/injection, schedule: Q01DX001 (ip), vehicle: gum acacia 91 % of control

COc1cc(N=Nc2ccc([N+](=O)[O-])cc2)c(OC)cc1N
inactive: dose: 5.0 mg/kg/injection, schedule: Q01DX001 (ip), vehicle: other 98 % of control | dose: 10.0 mg/kg/injection, schedule: Q01DX001 (ip), vehicle: other 101 % of control | dose: 20.0 mg/kg/injection, schedule: Q01DX001 (ip), vehicle: other 98 % of control | dose: 40.0 mg/kg/injection, schedule: Q01DX001 (ip), vehicle: other 101 % of control

O=C(O)c1c(F)c(F)c(O)c(F)c1F
inactive: dose: 25.6 mg/kg/injection, schedule: Q04DX002 (ip), vehicle: saline with Tween-80 103 % of control | dose: 64.0 mg/kg/injection, schedule: Q04DX002 (ip), vehicle: saline with Tween-80 110 % of control | dose: 160.0 mg/kg/injection, schedule: Q04DX002 (ip), vehicle: saline with Tween-80 89 % of control | [1] 103 % of control

Cc1ccc(S(=O)(=O)NC(=S)Nc2ccccc2)cc1
inactive: dose: 50.0 mg/kg/injection, schedule: Q01DX001 (ip), vehicle: saline 98 % of control | dose: 50.0 mg/kg/injection, schedule: Q01DX009 (ip), vehicle: saline 102 % of control | [2] 101 % of control | dose: 100.0 mg/kg/injection, schedule: Q01DX009 (ip), vehicle: saline 95 % of control | [3] 101 % of control | dose: 200.0 mg/kg/injection, schedule: Q01DX009 (ip), vehicle: saline 109 % of control

Cc1nc(-c2ccc(N=Cc3ccc(N(CCOS(C)(=O)=O)CCOS(C)(=O)=O)cc3C)cc2)c(C)s1
inactive: dose: 5.0 mg/kg/injection, schedule: Q01DX009 (ip), vehicle: Klucel (hydroxypropylcellulose) (HPC) 120 % of control | dose: 10.0 mg/kg/injection, schedule: Q01DX009 (ip), vehicle: Klucel (hydroxypropylcellulose) (HPC) 120 % of control | dose: 20.0 mg/kg/injection, schedule: Q01DX001 (ip), vehicle: Klucel (hydroxypropylcellulose) (HPC) 121 % of control | dose: 26.6 mg/kg/injection, schedule: Q01DX001 (ip), vehicle: Klucel (hydroxypropylcellulose) (HPC) 108 % of control | dose: 40.0 mg/kg/injection, schedule: Q01DX001 (ip), vehicle: Klucel (hydroxypropylcellulose) (HPC) 119 % of control | dose: 60.0 mg/kg/injection, schedule: Q01DX001 (ip), vehicle: Klucel (hydroxypropylcellulose) (HPC) 111 % of control

CC(=O)Nc1ccccc1C[P+](c1ccccc1)(c1ccccc1)c1ccccc1
inactive: dose: 25.0 mg/kg/injection, schedule: Q04DX003 (ip), vehicle: Klucel (hydroxypropylcellulose) (HPC) 97 % of control | dose: 50.0 mg/kg/injection, schedule: Q04DX003 (ip), vehicle: Klucel (hydroxypropylcellulose) (HPC) 98 % of control | [4] 100 % of control

COc1c(C)c(C)c(OC(C)=O)c(C)c1COC(C)=O
inactive: dose: 25.0 mg/kg/injection, schedule: Q01DX009 (ip), vehicle: saline with Tween-80 90 % of control | dose: 50.0 mg/kg/injection, schedule: Q01DX009 (ip), vehicle: saline with Tween-80 95 % of control | dose: 100.0 mg/kg/injection, schedule: Q01DX001 (ip), vehicle: saline with Tween-80 98 % of control | [5] 95 % of control and 98 % of control | dose: 200.0 mg/kg/injection, schedule: Q01DX001 (ip), vehicle: saline with Tween-80 93 % of control | dose: 400.0 mg/kg/injection, schedule: Q01DX001 (ip), vehicle: saline with Tween-80 109 % of control

C[CH2][Pb]([CH2]C)([CH2]C)[O]C(C)=O
inactive: dose: 0.62 mg/kg/injection, schedule: Q01DX009 (ip), vehicle: Klucel (hydroxypropylcellulose) (HPC) 96 % of control | dose: 1.25 mg/kg/injection, schedule: Q01DX009 (ip), vehicle: Klucel (hydroxypropylcellulose) (HPC) 102 % of control | dose: 2.5 mg/kg/injection, schedule: Q01DX009 (ip), vehicle: Klucel (hydroxypropylcellulose) (HPC) 93 % of control and 94 % of control | dose: 5.0 mg/kg/injection, schedule: Q01DX001 (ip), vehicle: carboxymethylcellulose (CMC) 100 % of control | dose: 5.0 mg/kg/injection, schedule: Q04DX003 (ip), vehicle: Klucel (hydroxypropylcellulose) (HPC) 90 % of control | dose: 10.0 mg/kg/injection, schedule: Q01DX001 (ip), vehicle: carboxymethylcellulose (CMC) 103 % of control | dose: 10.0 mg/kg/injection, schedule: Q04DX003 (ip), vehicle: Klucel (hydroxypropylcellulose) (HPC) 95 % of control

c1ccc(C2NC2(c2ccccc2)C2(c3ccccc3)SCCCS2)cc1 (configuration not stated)
inactive: [4] 111 % of control | [6] 103 % of control | [7] 105 % of control

N=C(N)N/N=C(/c1ccccc1)c1ccc(Oc2ccc(/C(=N/NC(=N)N)c3ccccc3)cc2)cc1
inactive: dose: 60.0 mg/kg/injection, schedule: Q01DX Z (oral), vehicle: methylcellulose (MC) 95 % of control | dose: 240.0 mg/kg/injection, schedule: Q01DX Z (ip), vehicle: methylcellulose (MC) 101 % of control | dose: 240.0 mg/kg/injection, schedule: Q01DX Z (oral), vehicle: methylcellulose (MC) 97 % of control | dose: 360.0 mg/kg/injection, schedule: Q01DX Z (ip), vehicle: methylcellulose (MC) 102 % of control | dose: 480.0 mg/kg/injection, schedule: Q01DX Z (ip), vehicle: methylcellulose (MC) 101 % of control | dose: 480.0 mg/kg/injection, schedule: Q01DX Z (oral), vehicle: methylcellulose (MC) 111 % of control

CC1(C)OC2/C(=N/O)C3COC(O3)C2O1 (configuration not stated)
inactive: [2] 101 % of control | [3] 95 % of control | [8] 106 % of control

O=C(NC1CCCCC1)OCCOc1ccccc1
inactive: [9] 95 % of control | [10] 103 % of control | [11] 97 % of control

COc1ccc(CNCCNCc2ccc(OC)c(OC)c2)cc1OC
inactive: [5] 97 % of control | dose: 100.0 mg/kg/injection, schedule: Q04DX003 (ip), vehicle: saline with Tween-80 100 % of control | dose: 200.0 mg/kg/injection, schedule: Q01DX009 (ip), vehicle: saline with Tween-80 102 % of control | dose: 200.0 mg/kg/injection, schedule: Q04DX003 (ip), vehicle: saline with Tween-80 93 % of control | dose: 400.0 mg/kg/injection, schedule: Q01DX009 (ip), vehicle: saline with Tween-80 106 % of control | dose: 400.0 mg/kg/injection, schedule: Q04DX003 (ip), vehicle: saline with Tween-80 105 % of control

O=C(Nc1ccc(S(=O)(=O)Nc2ccc(N=Nc3ccc(N=Nc4ccccc4)cc3)cc2)cc1)C(N1CC1)(N1CC1)N1CC1
inactive: dose: 15.0 mg/kg/injection, schedule: Q01DX001 (ip), vehicle: saline 104 % of control | dose: 30.0 mg/kg/injection, schedule: Q01DX001 (ip), vehicle: saline 117 % of control | dose: 60.0 mg/kg/injection, schedule: Q01DX001 (ip), vehicle: saline 102 % of control

N=C1N=C(N)CS1
inactive: [2] 95 % of control | [3] 104 % of control | [8] 101 % of control

O=C(Nc1ccc(O)cc1)Nc1cccc(C(F)(F)F)c1
inactive: dose: 100.0 mg/kg/injection, schedule: Q01DX009 (ip), vehicle: gum acacia 103 % of control | dose: 200.0 mg/kg/injection, schedule: Q01DX009 (ip), vehicle: gum acacia 106 % of control | dose: 400.0 mg/kg/injection, schedule: Q01DX009 (ip), vehicle: gum acacia 100 % of control

COC(=O)c1c(C)n(C)c2c1c1c(O)c3c(O)c(C)c4c(c32)C(=O)C(C)(O/C=C/C(OC)C(C)C(OC(C)=O)C(C)C(O)C(C)C(O)C(C)/C=C\C=C(C)C(=O)N1)O4 (configuration not stated)
inactive: dose: 50.0 mg/kg/injection, schedule: Q04DX003 (ip), vehicle: water 104 % of control | dose: 100.0 mg/kg/injection, schedule: Q04DX003 (ip), vehicle: water 100 % of control | dose: 200.0 mg/kg/injection, schedule: Q04DX003 (ip), vehicle: water 98 % of control | dose: 400.0 mg/kg/injection, schedule: Q04DX003 (ip), vehicle: water 98 % of control

CC(=O)OCCCc1ccccc1
inactive: [9] 94 % of control | [4] 98 % of control | [10] 95 % of control | [6] 97 % of control | [11] 94 % of control | [7] 94 % of control
